Like-named read-outs stand apart in the source and are kept apart here.
Columns and labels:
[1] = test system: Escherichia coli (ATCC 8739); test: USP <51> antimicrobial effectiveness (challenge) test, E. coli; assay type: cell-based; conditions: for Log E. coli: initial inoculum 5.0 × 10^5 cfu/mL = 5.70; for Log Change (E. coli), decrease in log 10 of organism from initial spike: initial log 5.70
Excerpt: (§1) See Antimicrobial Test Laboratories description of USP 51 Test.

[2] = test system: Aspergillus brasiliensis (ATCC 16404); test: USP <51> antimicrobial effectiveness (challenge) test, A. brasiliensis; assay type: cell-based; conditions: for Log A brasiliensis: initial inoculum 2.6 × 10^5 cfu/mL = 5.41; for Log Change (A brasiliensis), decrease in log 10 of organism from initial spike: initial log 5.41
Excerpt: as §1

[3] = test system: Staphylococcus aureus (ATCC 6538P); conditions: initial log 5.34
Method: USP 51 challenges (inoculates) a formula with 5 different microorganisms, separately. Three bacteria and two fungal strains are used for each USP 51 test. Test microorganisms are grown in liquid or on solid medium, depending on the microorganism. Microorganisms used for a USP 51 test include: 1) Candida albicans (a yeast which is a form of fungus), 2) Aspergillus brasiliensis (a filamentous mold and also a fungus), 3) Escherichia coli (a bacterium better known as “E. coli”), 4) Pseudomonas aeruginosa (a bacterium that is problematic industrially), and 5) Staphylococcus aureus (a bacterium known as “Staph”).
The test microorganisms are either harvested by centrifugation from broth culture or by washing surface growth from a solid medium into a sterile vessel. The concentrations of test microorganisms are standardized by re-suspending harvested microorganisms in sterile saline to yield ˜1×10̂8 CFU/ml. […] A recovery analysis is performed to verify that microorganisms present in a sample can be adequately recovered and enumerated using the chosen dilution and plating scheme. A sufficient volume of test product (typically 10 ml) is distributed into each of 5 separate containers, and each container is inoculated with a separate test microorganism (mentioned above). The initial concentration of viable microorganisms in the test product is determined by standard dilution and plate count methods. […] The microorganism concentration at each interval is compared to the initial concentration, and then preservative effectiveness is determined based upon USP guidelines.
Here, a USP 51 test was conducted with the following parameters. For preparatory method suitability, validated recovery of organisms using TSB+IAA broth.

[4] = test system: Candida albicans (ATCC 10231); test: USP <51> antimicrobial effectiveness (challenge) test, C. albicans; assay type: cell-based; conditions: for Log C albicans: initial inoculum 9.4 × 10^5 cfu/mL = 5.97; for Log Change (C albicans), decrease in log 10 of organism from initial spike: initial log 5.97
Excerpt: as §1

[5] = test system: Pseudomonas aeruginosa; test: USP <51> antimicrobial effectiveness (challenge) test, P. aeruginosa; assay type: cell-based; conditions: for Log P. aeruginosa: initial inoculum 2.9 × 10^5 cfu/mL = 5.46; for Log Change (P. aeruginosa), decrease in log 10 of organism from initial spike: initial log 5.46
Excerpt: as §1

urea sulfate
Log E. coli ([1]; Day 1): <1 Log
Log Change (E. coli), decrease in log 10 of organism from initial spike ([1]; Day 1): >*4.70 log 10
Log E. coli ([1]; Day 7): <1 Log
Log Change (E. coli), decrease in log 10 of organism from initial spike ([1]; Day 7): >*4.70 log 10
Log E. coli ([1]; Day 14): <1 Log
Log Change (E. coli), decrease in log 10 of organism from initial spike ([1]; Day 14): >*4.70 log 10
Log E. coli ([1]; Day 28): <1 Log
Log Change (E. coli), decrease in log 10 of organism from initial spike ([1]; Day 28): >*4.70 log 10
change in the amount of Escherichia coli ([1]; after a month): no measurable change
Log A brasiliensis ([2]; Day 1): <1 Log
Log Change (A brasiliensis), decrease in log 10 of organism from initial spike ([2]; Day 1): >*4.97 log 10
Log A brasiliensis ([2]; Day 7): <1 Log
Log Change (A brasiliensis), decrease in log 10 of organism from initial spike ([2]; Day 7): >*4.97 log 10
Log A brasiliensis ([2]; Day 14): <1 Log
Log Change (A brasiliensis), decrease in log 10 of organism from initial spike ([2]; Day 14): >*4.97 log 10
Log A brasiliensis ([2]; Day 28): <1 Log
Log Change (A brasiliensis), decrease in log 10 of organism from initial spike ([2]; Day 28): >*4.97 log 10
change in the amount of Aspergillus brasiliensis ([2]; after a month): no measurable change
Log Change (S aureus), decrease in log 10 of organism from initial spike ([3]; Day 1): >*4.34 log 10
Log Change (S aureus), decrease in log 10 of organism from initial spike ([3]; Day 7): >*4.34 log 10
Log Change (S aureus), decrease in log 10 of organism from initial spike ([3]; Day 14): >*4.34 log 10
Log Change (S aureus), decrease in log 10 of organism from initial spike ([3]; Day 28): >*4.34 log 10
Log C albicans ([4]; Day 1): <1 Log
Log Change (C albicans), decrease in log 10 of organism from initial spike ([4]; Day 1): >*4.97 log 10
Log C albicans ([4]; Day 7): <1 Log
Log Change (C albicans), decrease in log 10 of organism from initial spike ([4]; Day 7): >*4.97 log 10
Log C albicans ([4]; Day 14): <1 Log
Log Change (C albicans), decrease in log 10 of organism from initial spike ([4]; Day 14): >*4.97 log 10
Log C albicans ([4]; Day 28): <1 Log
Log Change (C albicans), decrease in log 10 of organism from initial spike ([4]; Day 28): >*4.97 log 10
change in the amount of Candida albicans ([4]; after a month): no measurable change
Log P. aeruginosa ([5]; Day 1): <1 Log
Log Change (P. aeruginosa), decrease in log 10 of organism from initial spike ([5]; Day 1): >*4.46 log 10
Log P. aeruginosa ([5]; Day 7): <1 Log
Log Change (P. aeruginosa), decrease in log 10 of organism from initial spike ([5]; Day 7): >*4.46 log 10
Log P. aeruginosa ([5]; Day 14): <1 Log
Log Change (P. aeruginosa), decrease in log 10 of organism from initial spike ([5]; Day 14): >*4.46 log 10
Log P. aeruginosa ([5]; Day 28): <1 Log
Log Change (P. aeruginosa), decrease in log 10 of organism from initial spike ([5]; Day 28): >*4.46 log 10
change in the amount of Pseudomonas aeruginosa ([5]; after a month): no measurable change
